Series [1] concerns blood pressure in renal hypertensive rats. In words: Antihypertensive effects in renal hypertensive rats (left renal artery ligation). The format is in vivo, rat. As to the method: This procedure increases blood pressure by increasing renin production with consequent elevation of AII levels. Compounds are administered orally at 100 mg/kg and/or intravenously via a cannula in the jugular vein at 10 mg/kg. Arterial blood pressure is continuously measured directly through a carotid artery cannula and recorded using a pressure transducer and a polygraph. Blood pressure levels after treatment are compared to pretreatment levels to determine the antihypertensive effects of the compounds (See Table 6).

Another series relates to AT1 receptor. The following applies: cited from earlier work.
Series [2] is described as follows: Solubility studies in nonaqueous solvents at 25° C. It counts as physicochemical. The following applies: overnight equilibration; for solubility: organic solvent or mixture, isopropyl acetate.
The format of series [3] is physicochemical. The following applies: 25° C., overnight equilibration. The text has this:
From these facts it was concluded that the minor endotherm corresponds to an enantiotropic polymorphic transition. The major endotherm is the melting of the high-temperature form. The low-temperature stable polymorph (up to the transition temperature) is designated Form I and the high-temperature stable polymorph is designated Form II. […] Form I is the solid modification consistently obtained by solvent isolation. This was confirmed by recrystallizing the drug substance under varying conditions and analyzing by XRPD. Form II has been obtained only from DSC or related high temperature experiments.

Series [4] concerns blood pressure in conscious dogs. Briefly: Hypotensive effects in conscious dogs before and after furosemide. It counts as in vivo, dog. The following applies: cumulative iv 0.3 to 3 mg/kg. As to the method:
(§1) The hypotensive effects of 2-butyl-4-chloro-1-[2'-(1H-tetrazol-5-yl)biphenyl-4-yl)methyl]-5-hydroxymethylimidazole sodium salt were compared before and after furosemide administration to conscious dogs. […] Plasma renin activity (PRA) in these animals was 1.5±0.5 ng AI/ml/hr. Four days later, furosemide was given to three of these dogs at 10 mg/kg im at 18 and 2 hours before the experiment and increased PRA to 19.9±7.2 ng AI/ml/hr. […] Thus a combined therapy of these two classes of drugs will be likely to increase the response rate to therapy among hypertensive patients.

The test system of a further series is pressor response to AII. Briefly: Inhibition of the pressor response to AII in conscious dogs. It counts as in vivo, dog. On the procedure:
as §1

In the next series the test system is plasma renin. Briefly: Plasma renin activity (PRA) in conscious dogs. It counts as in vivo, dog. The following applies: furosemide 10 mg/kg im at 18 and 2 hours before the experiment, three dogs; PRA before furosemide 1.5±0.5. On the procedure: as §1
In a further series the test system is AII. The following applies: cited from earlier work.
The test system of series [5] is renal vasoconstrictor effect of indomethacin and meclofenamate. The following applies: dogs; cited from earlier work.
A further series relates to arterial pressure. The following applies: cited from earlier work.
The test system of series [6] is renal vasoconstrictor effect of indomethacin. The following applies: dogs with non-hypotensive hemorrhage; cited from earlier work.

Where a name gives a salt, the structure may show the parent alone.

The values below come from patent US5608075A (priority 1995, dated 1997).

Regarding `CCCCc1nc(Cl)c(CO)n1Cc1ccc(-c2ccccc2-c2nn[nH]n2)cc1` [Losartan, 2-butyl-4-chloro-1-[(2'-tetrazol-5-yl)-biphenyl-4-yl]methyl]-5-(hydroxymethyl)imidazole potassium salt], the “Antihypertensive Effects in Renal Hypertensive Rats, Intravenous Activity” value in series [1] (intravenous, 10 mg/kg) is “+ (Significant decrease in blood pressure at 10 mg/kg or less)”. In addition, in [1] (oral, 100 mg/kg), the “Antihypertensive Effects in Renal Hypertensive Rats, Oral Activity” value is given as “+ (Significant decrease in blood pressure at 100 mg/kg or less)”. Further, the “AII antagonist activity, oral” value with AT1 receptor is “orally active AII antagonists”.
As for `CCCCc1nc(Cl)c(CO)n1Cc1ccc(-c2ccccc2-c2nnn[nH]2)cc1.[K]` [Form I, 2-n-butyl-4-chloro-1-[(2'-(tetrazol-5-yl)-1,1'-biphenyl-4-yl)-methyl]-1H-imidazole-5-methanol potassium salt], the “solubility in ethyl acetate” value in series [2] (ethyl acetate) is given as ~ 0.3 mg/g. Also, the solubility in isopropanol in series [2] (isopropanol) was ~ 35 mg/g. Also, in series [2] (methyl ethyl ketone), the “solubility in methyl ethyl ketone” value is ~ 1 mg/g. In addition, in series [2], the solubility (usually the concentration that dissolves in the medium under given conditions) came out at 18 µg/mL. In series [3], the “polymorph conversion in isopropyl acetate” value is reported as “no conversion of either Form was observed”.
For the compound `CCCCc1nc(Cl)c(CO)n1Cc1ccc(-c2ccccc2-c2nn[nH]n2)cc1` [Form II, 2-n-butyl-4-chloro-1-[(2'-(tetrazol-5-yl)-1,1'-biphenyl]-1H-imidazole-5-methanolpotassium salt], the solubility in series [2] came to 41 µg/mL. In series [3], the “polymorph conversion in isopropanol, methyl ethyl ketone and ethyl acetate” value is listed as “converts to Form I after overnight equilibration”; the “polymorph conversion in isopropyl acetate” value is on record as “no conversion of either Form was observed”.
Regarding `CCCCc1nc(Cl)c(CO)n1Cc1ccc(-c2ccccc2-c2nn[nH]n2)cc1` [2-butyl-4-chloro-1-[2'-(1H-tetrazol-5-yl)biphenyl-4-yl)methyl]-5-hydroxymethylimidazole sodium salt], the “decrease in blood pressure after furosemide” value in [4] (furosemide-treated dogs) is listed as “significant decrease in blood pressure in a dose-dependent manner”. Further, the “blood pressure lowering in normotensive conscious dogs” value in [4] (n=4, before furosemide) is “did not lower blood pressure”. Also, in the series with pressor response to AII (cumulative iv 0.3 to 3 mg/kg, AII 0.1 μg/kg iv, 10 min post dose, before furosemide), the “inhibition of the pressor response to AII” value is listed as “effective in inhibiting the pressor response to AII”. Besides, in the series on pressor response to AII (cumulative iv, furosemide-treated dogs), the “inhibition of the pressor response to AII after furosemide” value was “inhibited the pressor response to AII at the two higher doses”.
On to `NS(=O)(=O)c1cc(C(=O)O)c(NCc2ccco2)cc1Cl` [furosemide], for which the “plasma renin activity (PRA) after furosemide” value in the series on plasma renin amounted to 19.9±7.2 ng AI/ml/hr.
Consider `CNCC(=O)N[C@@H](CCCN=C(N)N)C(=O)N[C@H](C(=O)N[C@@H](Cc1ccc(O)cc1)C(=O)N[C@H](C(=O)N[C@@H](Cc1cnc[nH]1)C(=O)N1CCC[C@H]1C(=O)N[C@@H](C)C(=O)O)C(C)C)C(C)C` [Saralasin, [Sar^1, Ala^8] AII], for which the “block of effects of AII on the blood pressure” value in the series with AII (pithed rats) is given as “blocks the effects of AII on the blood pressure of pithed rats”. For the same compound, the “competitive antagonism of the actions of AII” value in the series with AII (rat, in vivo) is recorded as “one of the most potent competitive antagonists of the actions of AII”. The “inhibition of renal vasoconstrictor effect of indomethacin and meclofenamate” value in series [5] is “inhibit the renal vasoconstrictor effect of indomethacin and meclofenamate in dogs”. Moreover, in the series on arterial pressure (oral doses), the oral effectiveness result is reported as “oral doses being ineffective”. For the same compound, the “duration of pharmacological effects” value in the series on arterial pressure (parenteral administration) is recorded as “relatively short-lasting”. The “lowering of arterial pressure” value with arterial pressure (when the (elevated) pressure is dependent on circulating AII) is “lower arterial pressure in mammals and man”. In addition, in the series with arterial pressure (when the pressure is not sustained by AII), the “pressor effects (agonistic character)” value is “generally elicits pressor effects when the pressure is not sustained by AII”.
`C[C@H](CS)C(=O)N1CCC[C@H]1C(=O)O` [captopril]: in series [6], the “reversal of renal vasoconstrictor effect of indomethacin” value was “reverse the renal vasoconstrictor effect of indomethacin in dogs”.
